Results on 22 compounds are retold here after PubChem BioAssay (NCI).

Some test systems named below: MOLT-4 leukemia; 786-0 renal; OVCAR-5 ovarian; KM12 colon; UO-31 renal; SNB-19 CNS; UACC-257 melanoma; NCI-H460 lung; HCT-15 colon; T-47D breast; MCF7 breast; MDA-N.
Holding throughout (test): inhibition of tumour cell growth, NCI panel, 48 h

Where “and” joins values, the source holds several entries; their conditions need not be identical. Equal entries are not always repeated.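 Test compounds were applied to cells in 96-well plates for 48 hours at 5 doses. The concentration for 50% growth inhibition is given as GI50. TGI: concentration producing complete growth inhibition.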

For `COc1ccc(N2C(=O)C3c4[nH]c5ccccc5c4C4CCCCC4C3C2=O)cc1` (stereo not drawn), the TGI with MOLT-4 leukemia is 36.9 µM; with 786-0 renal, 23.8 µM; in the assay with OVCAR-5 ovarian it was over 100 µM; with KM12 colon, over 100 µM; in the assay with UO-31 renal, over 100 µM; with SNB-19 CNS, over 100 µM. The TGI in the assay on UACC-257 melanoma, with NCI-H460 lung and in the assay with HCT-15 colon was over 100 µM in each case.

For the compound `O=S1Nc2c(Cl)cc(Cl)c(Cl)c2S1` (stereo not drawn), the TGI in the assay with MOLT-4 leukemia, in the assay on 786-0 renal, in the assay on OVCAR-5 ovarian, with KM12 colon, in the assay on UO-31 renal and in the assay on SNB-19 CNS was over 100 µM in each case. In addition, the TGI in the assay on UACC-257 melanoma, in the assay on NCI-H460 lung and in the assay on HCT-15 colon was over 100 µM in each case.

Consider `N#CCC(=O)N1CCCCCCC1`, for which the TGI with 786-0 renal, in the assay on OVCAR-5 ovarian, with KM12 colon, in the assay with UO-31 renal, with SNB-19 CNS and in the assay with UACC-257 melanoma was over 100 µM in each case. Besides, the TGI with NCI-H460 lung is over 100 µM; in the assay on HCT-15 colon, 30.5 µM.

In the case of `CCN(CC)CC(=N)N(CC)c1ccccc1`, the TGI in the assay on MOLT-4 leukemia, with 786-0 renal, with OVCAR-5 ovarian, in the assay with KM12 colon, in the assay with UO-31 renal and in the assay with SNB-19 CNS was over 100 µM throughout. Besides, the TGI in the assay with UACC-257 melanoma, in the assay on NCI-H460 lung and with HCT-15 colon was over 100 µM throughout.

With `Cn1c(=O)c2/c(n(C)c1=O)=N\C=c1\c(=O)n(C)c(=O)n(C)\c1=N\C=2`, the TGI in the assay with MOLT-4 leukemia, in the assay with 786-0 renal, with OVCAR-5 ovarian, with KM12 colon, in the assay with UO-31 renal and with SNB-19 CNS was over 100 µM each time. Also, the TGI in the assay on UACC-257 melanoma, in the assay on NCI-H460 lung and in the assay with HCT-15 colon was over 100 µM throughout.

With `Cc1ccc(NC(=O)CSC(N)=O)cc1C`, the TGI with MOLT-4 leukemia, in the assay with 786-0 renal, in the assay on OVCAR-5 ovarian, in the assay on KM12 colon, in the assay with UO-31 renal and in the assay on T-47D breast was over 100 µM throughout. Besides, the TGI in the assay with MCF7 breast, with SNB-19 CNS, with UACC-257 melanoma, in the assay on NCI-H460 lung and with HCT-15 colon was over 100 µM throughout.

Regarding `O=C1CSc2cc([N+](=O)[O-])ccc2N1`, the TGI in the assay with MOLT-4 leukemia, in the assay on 786-0 renal, with OVCAR-5 ovarian, with KM12 colon, in the assay with SNB-19 CNS and in the assay with UACC-257 melanoma was over 100 µM each time. In addition, the TGI in the assay with NCI-H460 lung and in the assay with HCT-15 colon was over 100 µM throughout.

As to `CC1(C)N=C(c2ccccn2)C(c2ccccn2)=NC1(C)C`, the TGI in the assay on MOLT-4 leukemia, in the assay on 786-0 renal, in the assay with OVCAR-5 ovarian, with KM12 colon, with UO-31 renal and in the assay with SNB-19 CNS was over 100 µM throughout. Moreover, the TGI with UACC-257 melanoma, in the assay with NCI-H460 lung and in the assay on HCT-15 colon was over 100 µM each time.

In the case of `NC(CSSCC(N)Cc1ccccc1)Cc1ccccc1` (stereo not drawn), the TGI was over 100 µM in the assay with MOLT-4 leukemia; over 100 µM in the assay with 786-0 renal; over 100 µM in the assay on OVCAR-5 ovarian; 94 µM in the assay on KM12 colon; over 100 µM in the assay on UO-31 renal; over 100 µM in the assay with SNB-19 CNS. The TGI with UACC-257 melanoma, in the assay with NCI-H460 lung and with HCT-15 colon was over 100 µM throughout.

`CC1=NN(c2nc(N)nc(CF)n2)C(C)(C)C1`: the TGI in the assay with MOLT-4 leukemia, with 786-0 renal, with KM12 colon, in the assay on UO-31 renal, with T-47D breast and in the assay with MCF7 breast was over 100 µM in each case. The TGI in the assay with SNB-19 CNS, in the assay on UACC-257 melanoma, in the assay on NCI-H460 lung and with HCT-15 colon was over 100 µM in each case.

Regarding `C/C=N\N1C(=O)c2ccccc2C1=O`, the TGI in the assay with MOLT-4 leukemia, with 786-0 renal, in the assay with OVCAR-5 ovarian, in the assay on KM12 colon, in the assay with UO-31 renal and in the assay on SNB-19 CNS was over 100 µM each time. The TGI in the assay with UACC-257 melanoma, in the assay on NCI-H460 lung and with HCT-15 colon was over 100 µM each time.

For the compound `O=c1oc2ccccc2c(O)c1C(C/C(CCN1CCCC1)=N\Nc1ccccc1)c1ccccc1` (stereo not drawn), the TGI with 786-0 renal, with OVCAR-5 ovarian, with KM12 colon, in the assay on UO-31 renal, in the assay on SNB-19 CNS and in the assay on UACC-257 melanoma was over 100 µM throughout. Besides, the TGI with NCI-H460 lung and with HCT-15 colon was over 100 µM each time.

`O=C(/C=C\c1cccc2ccccc12)c1cccc2ccccc12`: the GI50 in the assay on MOLT-4 leukemia was 2.49 µM; in the assay with KM12 colon, 4.2 µM. Also, the TGI in the assay on MOLT-4 leukemia is 8.08 µM and 20.5 µM; in the assay with 786-0 renal, 17.4 µM; in the assay on KM12 colon, 16.5 µM; with UO-31 renal, 27.4 µM; in the assay with SNB-19 CNS it was 23.7 µM; in the assay with UACC-257 melanoma, 29.9 µM. This compound also returned a TGI in the assay with HCT-15 colon of 19.6 µM.

For the compound `Oc1ccc(Cl)cc1C1=NC(/N=C\c2ccccc2)=NC(c2ccccc2)C1` (stereo not drawn), the TGI with MOLT-4 leukemia is over 100 µM; with 786-0 renal, over 100 µM; in the assay on OVCAR-5 ovarian, over 100 µM; with KM12 colon, over 100 µM; in the assay with UO-31 renal it was 74.1 µM; in the assay on T-47D breast, over 100 µM. In addition, the TGI in the assay with MCF7 breast and in the assay on UACC-257 melanoma was over 100 µM each time.

Turning to `CCN1CCC(O)(/C=C/c2ccc(OC)cc2)C(C(=O)/C=C/c2ccc(OC)cc2)C1` (stereo not drawn), the TGI in the assay with MOLT-4 leukemia is 12.4 µM; in the assay with 786-0 renal it was 12.4 µM; in the assay on OVCAR-5 ovarian it was 28.8 µM; in the assay with KM12 colon, 19.9 µM; in the assay on UO-31 renal, 21.5 µM; in the assay with T-47D breast, 24.1 µM. The TGI amounted to 10.7 µM with MCF7 breast, 29.9 µM in the assay with SNB-19 CNS, 30.9 µM in the assay with UACC-257 melanoma and 27.6 µM in the assay on NCI-H460 lung.

On to `COC(=O)C1=C(C(=O)OC)SC2(S1)C(C(=O)OC)=C(C(=O)OC)Sc1c2ssc1=NC(C)(C)C`, for which the TGI with MOLT-4 leukemia came out at 2.16 µM; in the assay with 786-0 renal it was 2.62 µM; in the assay on OVCAR-5 ovarian, 3.68 µM; in the assay with KM12 colon it was 3.91 µM; with UO-31 renal it was 3.34 µM; in the assay with MCF7 breast, 3.22 µM. Further, the TGI in the assay with SNB-19 CNS is 9.77 µM; in the assay with UACC-257 melanoma it was 3.05 µM; in the assay with HCT-15 colon, 2.19 µM.

For `O=C1c2ccccc2C(=O)c2[nH]c(Cc3ccc(F)cc3)nc21`, the TGI in the assay with MOLT-4 leukemia stood at 71.2 µM; in the assay with 786-0 renal, 43.8 µM; with KM12 colon it was 32.9 µM; with UO-31 renal it was 59.5 µM; with SNB-19 CNS, 51.3 µM; with UACC-257 melanoma, 30.4 µM. Further, the TGI amounted to 31.1 µM in the assay on NCI-H460 lung and 21.6 µM in the assay with HCT-15 colon.

Take `CN1C/C(=C\C=C\c2ccccc2)C(=O)/C(=C/C=C/c2ccccc2)C1`: the TGI in the assay with MOLT-4 leukemia, in the assay on 786-0 renal, with OVCAR-5 ovarian, in the assay on KM12 colon, in the assay on UO-31 renal and in the assay with SNB-19 CNS was over 100 µM each time. Moreover, the TGI in the assay with UACC-257 melanoma, in the assay with NCI-H460 lung and in the assay with HCT-15 colon was over 100 µM each time.

On to `O=c1c2ccccc2nc(N/N=C/c2ccccc2O)n1-c1ccccc1`, for which the TGI in the assay on 786-0 renal is 2.86 µM; in the assay with OVCAR-5 ovarian it was over 100 µM; in the assay with UO-31 renal, over 100 µM; with MCF7 breast it was over 100 µM; in the assay with SNB-19 CNS, over 100 µM; in the assay with UACC-257 melanoma it was over 100 µM. The TGI with MDA-N, in the assay with NCI-H460 lung and with HCT-15 colon was over 100 µM throughout.

`CCCC(=O)[O-].N.N.N.N.N.[Co+3].[O-][Cl+3]([O-])([O-])[O-]`: the TGI in the assay on MOLT-4 leukemia, in the assay on 786-0 renal, in the assay on OVCAR-5 ovarian, in the assay on KM12 colon, in the assay with UO-31 renal and in the assay on SNB-19 CNS was over 100 µM each time. The TGI in the assay with UACC-257 melanoma, in the assay with NCI-H460 lung and with HCT-15 colon was over 100 µM throughout.

Take `CC(=O)N/C(=C\c1ccc(Cc2nc3c([nH]2)C(=O)c2ccccc2C3=O)cc1)c1nc2c([nH]1)C(=O)c1ccccc1C2=O`: the TGI in the assay on MOLT-4 leukemia, in the assay on 786-0 renal, with OVCAR-5 ovarian, in the assay with KM12 colon, in the assay on UO-31 renal and in the assay with SNB-19 CNS was over 100 µM each time. Besides, the TGI in the assay with UACC-257 melanoma and with NCI-H460 lung was over 100 µM in each case.

`CCOC(=O)C(NC(=O)OC(C)(C)C)C(=O)OCC`: the TGI in the assay with MOLT-4 leukemia, with 786-0 renal, in the assay on OVCAR-5 ovarian, with KM12 colon, in the assay on UO-31 renal and with T-47D breast was over 100 µM in each case. For the same compound, the TGI in the assay on MCF7 breast, in the assay on SNB-19 CNS, in the assay on UACC-257 melanoma, in the assay with NCI-H460 lung and in the assay on HCT-15 colon was over 100 µM in each case.
